Consider 1 molecule from patent US20060019270A1, “Global DNA methylation assessment using bisulfite PCR” (Board of Regents The University of Texas System, priority 2004, published 2006).

Test [1] has as its system Alu element methylation in RKO cells. Kind of test: COBRA (MboI) of Alu repetitive element PCR, RKO cells treated with DAC. Format: cell-based, human. To be noted: 5 μM DAC for three days, decrease from 26%. Here is the method: (§1) Hct116, RKO and SW48, colon cancer cell lines (American Type Culture Collection, Manassas, Va.), were cultured using standard methods. Cells were treated with 5 μM 5-aza-2′deoxycytidine (DAC) for three days prior to being harvested. DNA from cell lines and peripheral blood leukocytes was extracted using phenol-chloroform extraction methods well known to one with skill on the art.
(§2) Bisulfite modification of genomic DNA is known in the art (see Clark et. al, 1994). In brief, 1.5 μg prepared 10 mM hydroquinone (Sigma) and 520 μl of 3M Sodium Bisulfite (Sigma) at pH=5.0 were added and mixed. The samples were overlayed with mineral oil to prevent evaporation and incubated at 50° C. for 16 hours. […] Bisulfite treated DNA was stored at −20° C. until ready for use.
(§3) Methylation analysis of Alu repetitive elements was performed initially by the COBRA assay. […] The digested PCR product was then separated by polyacrylamide gel electrophoresis or the PCR products were quantitated using a capillary electrophoresis system, an Agilent 2100 Bioanalyzer (Agilent Technologies, Palo Alto, Calif.).
(§4) In order to test whether Alu element […] LINE-1 methylation could approximate global methylation, COBRA, restriction digestion of the repetitive element PCR product, was used to quantitate DNA methylation in cell lines treated with 5-aza-2′deoxycytidine (DAC) (FIG. 3). […]

Test [2] relates to Alu element methylation in SW48 cells. Kind of test: COBRA (MboI) of Alu repetitive element PCR, SW48 cells treated with DAC. Format: cell-based, human. The conditions noted are these: 5 μM DAC for three days, decrease from 28%. The method, then: as §1, §2, §3, §4
Test [3] concerns LINE-1 methylation in Hct116 cells. Kind of test: COBRA (HinfI) of LINE-1 PCR, Hct116 cells treated with DAC. The format is cell-based, human. To be noted: 5 μM DAC for three days, 77% prior to treatment. Here is the method:
as §1
(§5) Bisulfite modification of genomic DNA is known in the art (see Clark et. al, 1994). In brief, 1.5 μg prepared 10 mM hydroquinone (Sigma) and 520 μl of 3M Sodium Bisulfite (Sigma) at pH=5.0 were added and mixed. The samples were overlayed with mineral oil to prevent evaporation and incubated at 50° C. for 16 hours. The bisulfite treated DNA was isolated using Wizard DNA Clean-Up System (Promega). The DNA was eluted by 50 μl of warm water and 5.5 μl of 3M NaOH were added for 5 minutes. The DNA was ethanol precipitated with glycogen as a carrier and resuspended in 20 μl water. Bisulfite treated DNA was stored at −20° C. until ready for use. […]
(§6) In order to test whether Alu element […] LINE-1 methylation could approximate global methylation, COBRA, restriction digestion of the repetitive element PCR product, was used to quantitate DNA methylation in cell lines treated with 5-aza-2′deoxycytidine (DAC) (FIG. 3). […] Thus both assays reliably detected inhibition of methylation induced by DAC. […]

The subject of test [4] is LINE-1 methylation in SW48 cells. Description: COBRA (HinfI) of LINE-1 PCR, SW48 cells treated with DAC. The format is cell-based, human. To be noted: 5 μM DAC for three days, decrease from 59%. The method, then: as §1, §5, §6
Test [5] relates to leukemia (AML/MDS, CML/CMML) patients. Description: Clinical response in the High Dose and Low Dose decitabine studies. The format is in vivo, human. The method, then: FIG. 6 illustrates treatment schema of patient samples. Patients were treated as part of a Phase II study of Decitabine which was given initially a dose of 90 mg/m2 twice daily for 5 consecutive days. This dose was later decreased to 50 mg/m2 twice daily due to toxicity. In this “High” Dose Study a total dose of 500-900 mg/m2 of decitabine was given over a 5 day period. Peripheral blood specimens were collected on day 0 or 1 prior to treatment, days 2-4 during treatment, and on days 5 or 6 after the completion of treatment. In the second study, a Phase I strategy of “Low” Dose Decitabine was used. This study was designed to take advantage of Decitabine's demethylating properties. Escalating doses of Decitabine of 5, 10, 15 and 20 mg/m2 were given as ten daily doses over a two week period. The total dose delivered was only 50 to 200 mg/m2 over a 14 day period. Peripheral blood specimens were collected on day 0 or 1 prior to treatment, and during days 2-14 of treatment;
Patient samples were collected from patients treated as part of two clinical studies using 5-aza-2′deoxycytidine (decitabine) as a single agent. The first study treated patients with 50-90 mg/m2 of decitabine twice daily for 5 consecutive days (See FIG. 8). The second study was a phase I study which attempted to capitalize on the demethylating properties of decitabine by using a lower dose of decitabine, 5-20 mg/m^2 once daily, for a longer period of time, 10 days over a two week period (See FIG. 8). Peripheral blood samples were collected prior to, during and after treatment. Donation of blood samples for laboratory studies was voluntary and […] were collected from 41 patients participating in both studies (See Table 4). Due to competing protocols and the availability of patients at the time of the two respective studies the majority of the patients enrolled on DM−, the “High-Dose” study were CML patients and the majority of the patients enrolled on DM−, the “Low-Dose” study were AML or High Risk MDS patients.
Donation of peripheral blood for laboratory analysis was voluntary, and only some of the patients enrolled on the two studies participated. A total of 134 samples were collected for analysis (52 in the High Dose Study and 82 in the Low Dose Study). The majority of patients treated in the High Dose Study were CML patients, however, the majority of patients treated in the Low Dose Study were AML or High risk MDS patients.

Setting [6] is: Total of both studies, 41 patients.

Consider `Nc1ncn([C@H]2C[C@H](O)[C@@H](CO)O2)c(=O)n1` [decitabine, 5-aza-2′-deoxycytidine], for which the “Alu element methylation after treatment with DAC” value in test [1] came out at 21%. For the same molecule, in test [2], the “Alu methylation after treatment with DAC” value was determined as 27%. The “LINE-1 methylation after treatment with DAC” value in test [3] was 17%; in test [4] it was 41%. The “Response Rate” value in test [5] (High Dose Study, 18 patients) amounted to 39%; in test [5] (Low Dose Study, 23 patients), 35%; in test [5] (setting [6]) it was 34%. Besides, the “Treatment Response CR/PR (patients)” value is listed as 7 in test [5] (High Dose Study, 18 patients); 7 in test [5] (Low Dose Study, 23 patients); 14 in test [5] (setting [6]). Further, the “Treatment Response No Response (patients)” value in test [5] (High Dose Study, 18 patients) turned out to be 11; in test [5] (Low Dose Study, 23 patients), 13; in test [5] (setting [6]) it was 24.
